# Where two headings read alike, the source gives them in different places.
# Legend:
# Assay type in all cases: cell-based
# [1] = tested on: T47D; assay: Cell proliferation assay (CellTiter Glo), T47D; details: Homo sapiens, 168 h, 7 Day assay, charcoal stripped serum, no phenol red
# Protocol: (§1) Cell lines were obtained from ATCC. Estrogen was obtained from SIGMA, 4-hydroxytamoxifen was obtained from SIGMA, Bosutinib was used for these studies. Charcoal-stripped serum and phenol red-free medium was obtained from Invitrogen. CellTiter Glo was obtained from Promega.
# (§2) Cell cultures. Proliferation assays with cells in complete fetal calf serum were performed with medium containing phenol red. For all assays examining estrogen-dependence, cells were cultured in phenol red-free medium; DMEM/F12 (MCF7), RPMI1640 (MDA-MB-361, T47D) MEM (BT20, MDA-MB-231) McCoys5A modified (SKBR3), Leibowitz' L15 medium supplemented with 10 ng/mL insulin (MDA-MB-435 and MDA-MB-468) with 10% fetal bovine serum supplemented with glutamine and gentamicin. For proliferation assays, trypsinized cells were subjected to three cycles of centrifugation and resuspension in phenol red-free medium supplemented with charcoal stripped medium (5% final), glutamine and Pen/Strep. Cells were plated on day 0, with or without estrogen (10 nM final concentration). On day 1, 4-hydroxytamoxifen and SKI-606 or DMSO were added as a serial dilution. […] After mixing and two hours incubation on the bench, plates were read on an Envision reader. […] The 10 uM data point was dropped for these two lines since there was a clear plateau prior to the sharp drop in luminescence observed at 10 uM compound. […]
# [2] = tested on: BT-20 (ER neg); assay: Cell proliferation assay (CellTiter Glo), BT-20; details: for IC50: Homo sapiens, BT-20, 168 h, 7 Day assay, charcoal stripped serum, no phenol red, plateau cell number at 5 μM used
# Protocol: as §1
# (§3) Cell cultures. Proliferation assays with cells in complete fetal calf serum were performed with medium containing phenol red. For all assays examining estrogen-dependence, cells were cultured in phenol red-free medium; DMEM/F12 (MCF7), RPMI1640 (MDA-MB-361, T47D) MEM (BT20, MDA-MB-231) McCoys5A modified (SKBR3), Leibowitz' L15 medium supplemented with 10 ng/mL insulin (MDA-MB-435 and MDA-MB-468) with 10% fetal bovine serum supplemented with glutamine and gentamicin. For proliferation assays, trypsinized cells were subjected to three cycles of centrifugation and resuspension in phenol red-free medium supplemented with charcoal stripped medium (5% final), glutamine and Pen/Strep. Cells were plated on day 0, with or without estrogen (10 nM final concentration). On day 1, 4-hydroxytamoxifen and SKI-606 or DMSO were added as a serial dilution. Cells were incubated for 7 days, after which CellTiter Glo (Promega) was added as recommended by the manufacturer. After mixing and two hours incubation on the bench, plates were read on an Envision reader. […] The 10 uM data point was dropped for these two lines since there was a clear plateau prior to the sharp drop in luminescence observed at 10 uM compound. The IC50 was calculated using a floating minima corresponding to the lowest luminescence value at 5 uM.
# Cell proliferation assays were performed in two formats; a three day proliferation assay in fully supplemented medium with phenol red, and a 7 day proliferation assay in phenol red free medium supplemented with charcoal-stripped medium. […] ER positive T47D cells were slightly more sensitive to SKI-606 in the presence of estrogen. BT20 cells were equally sensitive to SKI-606 in stripped serum medium, regardless of whether estrogen was present. […]
# [3] = tested on: ER; assay: ER signaling in MCF-7 cells (ERE-tk-luciferase, ERα levels)
# Protocol: Radis Procedure 2484, MCF-7 model was used for the measurement of in vitro estrogenic activity. MCF-7 cells were passaged twice a week in D-MEM/F-12 medium containing 10% (v/v) heat-inactivated fetal bovine serum, 1% (v/v) Penicillin-Streptomycin, and 2 mM glutaMax-1. The cells were plated with growth medium at 25,000/well into 96 well plates and incubated at 37° C. overnight.
# The cells were infected for 2 hr at 37° C. with 50 μl/well of a 1:10 dilution of adenovirus 5-ERE-tk-luciferase in phenol red-free D-MEM/F-12 medium containing 10% (v/v) heat-inactived charcoal-stripped fetal bovine serum, 1% (v/v) Penicillin-Streptomycin, 2 mM glutaMax-1, 1 mM sodium pyruvate. The wells are then washed once with 150 μl of experimental medium. Finally, the cells are treated for 24 hr at 37° C. in replicates of 8 wells/treatment with 150 μl/well of vehicle (<0.1% v/v DMSO) or compound that is diluted >1000-fold into experimental medium. SKI-606 was tested in a dose response assay in the presence of 0.1 nM 17β-estradiol to stimulate ERE-luc.
# After treatment, the cells are lysed on a shaker for 15 min with 25 μl/well of 1× cell culture lysis reagent (Promega Corporation). The cell lysates (20 μl) were transferred to a 96 well luminometer plate, and luciferase activity were measured in a MicroLumat LB 96 P luminometer (EG & G Berthold) using 100 μl/well of luciferase substrate (Promega Corporation). […]
# [4] = tested on: MDA-MB-435 (ER neg); assay: Cell proliferation assay, MDA-MB-435; details: Homo sapiens, MDA-MB-435, 72 h; 3 Day assay, complete medium (10% FCS)
# Protocol: as §1, §2
# [5] = tested on: MDA-MB-468 (ER neg); assay: Cell proliferation assay, MDA-MB-468; details: Homo sapiens, MDA-MB-468, 72 h; 3 Day assay, complete medium (10% FCS)
# Protocol: as §1, §2
# [6] = tested on: MDA-MB-361; assay: Cell proliferation assay (CellTiter Glo), MDA-MB-361; details: for IC50: Homo sapiens
# Protocol: as §1, §3
# (§4) Cell proliferation assays were performed in two formats; a three day proliferation assay in fully supplemented medium with phenol red, and a 7 day proliferation assay in phenol red free medium supplemented with charcoal-stripped medium. […] ER positive T47D cells were slightly more sensitive to SKI-606 in the presence of estrogen. BT20 cells were equally sensitive to SKI-606 in stripped serum medium, regardless of whether estrogen was present.
# (§5) Proliferation data for SKI-606 in various breast tumor lines in complete medium (10% FCS) and charcoal stripped serum with no phenol red (no E2, E2) with and without 10 nM estrogen. The complete medium data were obtained in 3-day assays, while stripped serum assays were extended for 7 days with one change of medium at day 5. The IC50 values for the BT20 line was calculated using the “plateau” cell number evident at 5 μM SKI-606.
# [7] = tested on: MCF7; assay: Cell proliferation assay (CellTiter Glo), MCF7; details: for IC50: Homo sapiens
# Protocol: as §1, §3, §4, §5
# [8] = 10 nM estrogen, read-out: IC50 (uM) E2
# [9] = without estrogen, read-out: IC50 (uM) no E2
smiles,measurement,setting,value
COc1cc(Nc2c(C#N)cnc3cc(OCCCN4CCN(C)CC4)c(OC)cc23)c(Cl)cc1Cl [bosutinib],IC50,[1]; [8],1.28 µM
same,IC50,[1]; [9],2.85 µM
same,toxicity at maximal concentration,"[2]; 10 uM SKI-606, BT20 cells",some toxicity was seen
same,IC50,[2]; [8],0.24 µM
same,IC50,[2]; [9],0.28 µM
same,genomic and non-genomic signaling by ER,[3],inhibits both genomic and non-genomic signaling by ER
same,IC50,[4],3.4 µM
same,IC50,[5],5 µM
same,toxicity at maximal concentration,"[6]; 10 uM SKI-606, MDA-MB-361 cells",some toxicity was seen
same,IC50,"[6]; MDA-MB-361, 72 h, 3 Day assay, complete medium (10% FCS), read-out: IC50 (uM) 10% FCS",2.5 µM
same,IC50,"[6]; MDA-MB-361, 168 h, 7 Day assay, charcoal stripped serum, no phenol red, 10 nM estrogen, read-out: IC50 (uM) E2",0.38 µM
same,IC50,"[6]; MDA-MB-361, 168 h, 7 Day assay, charcoal stripped serum, no phenol red, without estrogen, read-out: IC50 (uM) no E2",0.74 µM
same,effect on estrogen-dependent and estrogen-independent growth,[6]; MDA-MB-361,inhibited estrogen-dependent and estrogen-independent growth
same,IC50,"[7]; MCF7, 72 h, 3 Day assay, complete medium (10% FCS), read-out: IC50 (uM) 10% FCS",6.5 µM
same,IC50,"[7]; MCF7, 168 h, 7 Day assay, charcoal stripped serum, no phenol red, 10 nM estrogen, read-out: IC50 (uM) E2",0.86 µM
same,IC50,"[7]; MCF7, 168 h, 7 Day assay, charcoal stripped serum, no phenol red, without estrogen, cells did not grow well, data less reliable, read-out: IC50 (uM) no E2",0.08 µM
same,effect on estrogen-dependent and estrogen-independent growth,[7]; MCF7,inhibited estrogen-dependent and estrogen-independent growth
